In experiment [1] the test system is D10G4.1 Th2 clones. Put plainly: IL-4 release by Th2 clones. The format is cell-based. Particulars: stimulated with anti-CD3 Ab (0.1 and 0.5 μg/ml) or conalbumin pulsed APC.
In experiment [2] the test system is calcium dependent pathway. Kind of experiment: Proliferation by the calcium dependent (PMA+Lonomycin) pathway. Conditions: 48 h. The format is cell-based. Here is the method: Cells were seeded at 5×10^4 cells/well in flat-bottom 96-well plates. The various stimuli and Caerulomycin A were added at the initiation of the cultures. After 48 h, [^3H]-thymidine (1 μCi/well) was added, and its incorporation was measured 12 h later.

Experiment [3] relates to Th2 clones. Put plainly: Proliferation of Th2 clones. The format is cell-based. Conditions: stimulated with anti-CD3 Ab or conalbumin pulsed γ-irradiated splenocytes; Caerulomycin A 0.00625-0.1 μg/ml. Here is the method: The proliferation of Th2 clones was measured using cells harvested on 7-9 days after stimulation with antigen pulsed splenocytes. The dead cells were removed by ficoll-histopaque. Th2 clones (5×10^4 cells/well) were either stimulated with anti-CD3 Ab (0.1 μg/ml and 0.5 μg/ml) or incubated with γ-irradiated (3000 R) syngeneic splenocytes (5×10^5 cells/well) and conalbumin (100 μg/ml) in 200 μl RPMI/FCS-10% medium and with various concentrations of Caerulomycin A (0.00625-0.1 μg/ml). The control cultures consisting of Th2 cells incubated with conalbumin alone and γ-irradiated syngeneic splenocytes (no antigen) were also kept. The cultures were kept in a flat bottom 96 well microtitre plate and the cells were incubated at 37° C. and 7% CO2. After 48 h, the cultures were pulsed with 0.5 μCi of [^3H]-thymidine and harvested 16 h later. Radioactivity incorporated was measured by liquid scintillation counting and data are expressed as mean counts per minute (cpm).

The test system of experiment [4] is J774. Kind of experiment: Expression of B7-1 and B7-2 on J774. The format is cell-based.
Experiment [5] deals with naïve CD4^+ T cells. Put plainly: Proliferation of naïve CD4+ T cells. The format is cell-based. Here is the method: Examples establishing the role of Caerulomycin A [isolated from a novel species of Actinoalloteichus] in inducing immunosuppression based on the following: • Splenocytes of BALB/c mice were stimulated with either ConA (1 μg/ml and 2 μg/ml) or LPS (5 μg/ml and 10 μg/ml) and were cultured with different concentrations of Caerulomycin A (0.0003-0.1 μg/ml). After 48 h, the cultures were pulsed with 0.5 μCi of [^3H]-thymidine and harvested 14 h later by automatic cell harvester. Radioactivity incorporated was measured by liquid scintillation counting. • Antigen ovalbumin (100 μg/ml) emulsified in Freund's complete adjuvant was injected in a group consisting of 5 BALB/c mice. […] Radioactivity incorporated was measured by liquid scintillation. The culture supernatants were collected after 48 h and cytokines were measured by ELISA. • Immunosuppressive effect of different doses of Caerulomycin A was monitored on naïve CD4^+ T cells, antigen reactive CD4^+ T cells, Th2 clone and Th1 hybridoma. […] Radioactivity incorporated was measured by liquid scintillation. • Immunosuppressive effect of Caerulomycin A on MLR reaction. […] After 4 days, the cultures were pulsed with 1 μCi of [^3H]-thymidine and harvested 16 h later and radioactivity incorporated was measured by liquid scintillation counting. • In vivo immunosuppressive effect of Caerulomycin A on the proliferation of T cells. […]

The subject of experiment [6] is thymocytes. Kind of experiment: Expression of CD69 on mouse thymocytes. The format is cell-based, BALB/c mice. Particulars: ConA 1 and 5 μg/ml, 24 h. The method, then: The expression of CD69 was detected on the surface of thymocytes in the presence of Caerulomycin A. Thymocytes were obtained from 3-4 weeks old BALB/c mice. Thymocytes (4×10^6 cells/well) were stimulated with 1 μg/ml and 5 μg/ml of ConA for 24 h in the presence and absence of Caerulomycin A at 37° C. The cells were stained with PE labeled anti-mouse CD69 Ab. The stained cells were acquired on a FACScan as mentioned in the case of CD28/CTLA-4.

For experiment [7], the system named is Th2 clones. Put plainly: Kinetics of the effect on the proliferation of Th2 clones. Conditions: anti-CD3 Ab 0.5 μg/ml, read-out: inhibitory effect on Th2 cells. The format is cell-based. Here is the method: Th2 clones (5×10^4/well) were stimulated with anti-CD3 Ab (0.5 μg/ml). Caerulomycin A (0.05 μg/ml) was added either at the initiation of the cultures (time 0) or at various time points (4 h-48 h) After 48 h of the cultures, [^3H]-thymidine was added, and its incorporation was measured 12 h later.

Here are results for 1 compound from patent US8114895B2, “Use of bipyridine compound ‘Caerulomycin A’ derivatives and analogs thereof as immunosuppressive agents” (Council of Science and Industrial Research, priority 2005, dated 2012).

Like-named read-outs stand apart in the source and are kept apart here.

On to `COc1cc(/C=N/O)nc(-c2ccccn2)c1` [Caerulomycin A, (E)-4-methoxy-2,2′-bipyridine-6-carbaldehyde oxime], for which, in experiment [1], the “release of IL-4” value is “suppressed the release”. In experiment [2], the “proliferation of calcium dependent pathway” value was “significantly inhibited the proliferation”. The “proliferation of Th2 clones” value in experiment [3] is reported as “substantially restricted the proliferation”. Moreover, in experiment [4], the “expression of B7-1” value was “no major change” and the “expression of B7-2” value is on record as “increased the expression”. The “in vitro proliferation of naïve CD4+ T cells” value in experiment [5] was “suppression”. Further, the “expression of CD69” value in experiment [6] is reported as “no change in the expression”. The inhibition at 0.05 µg/mL in experiment [7] (0.05 μg/ml added after 42 h) stood at 56%. Besides, the inhibition at 0.05 µg/mL in experiment [7] (0.05 μg/ml added before 16 h of the initiation of the cultures) is 77 to 90%.
